Assay results as given in US20240199605A1, “SMALL MOLECULAR INHIBITORS OF NF-kB INDUCING KINASE” (Janssen Pharmaceutica NV, priority 2019, published 2024).
Read-outs that look alike come from different tables or passages of the source.

How the values were obtained:
[1] = target: recombinant human NF-kappaB-inducing kinase (NIK/MAP3K14) (Homo sapiens (Human), UniProt Q99558); experiment: Inhibition of auto-phosphorylation of recombinant human NIK/MAP3K14 (AlphaScreen); format: biochemical; conditions: NIK auto-phosphorylation, 5 μM ATP, 1 nM NIK, 2 h at 25° C.; average of values
How it was run: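 AlphaScreen read-out (anti-phospho-IKK Ser176/180 antibody, Protein A acceptor and glutathione donor beads) of NIK auto-phosphorylation. Reaction: 1 nM enzyme, 5 μM ATP, Tris pH 7.5 buffer with Mg2+ and vanadate, 2 h at 25° C., final DMSO 0.7%. IC50 came from a sigmoidal curve fit.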

[2] = test system: p-IKKα levels in L363 (NIK translocated multiple myeloma) cells; experiment: Effect of compounds on p-IKKα levels in L363 cells (AlphaLISA SureFire Ultra); format: cell-based, human; conditions: BAFF stimulated, MG132, 6 h, average of values, read-out: Assay 2 IC50
How it was run: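 Inhibition of p-IKKα (Ser176/180) read by AlphaLISA after 6 h, 37 °C compound exposure (11-point 1:3 series, 0.3% DMSO) of L363 cells pre-incubated overnight ± 250 ng/ml BAFF and plated ± BAFF ± 10 μM MG132. Normalised to BAFF/MG132/DMSO and unstimulated controls; IC50 by sigmoidal fitting, duplicates.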

recombinant human NF-kappaB-inducing kinase (NIK/MAP3K14), sequence (Q99558 whole entry): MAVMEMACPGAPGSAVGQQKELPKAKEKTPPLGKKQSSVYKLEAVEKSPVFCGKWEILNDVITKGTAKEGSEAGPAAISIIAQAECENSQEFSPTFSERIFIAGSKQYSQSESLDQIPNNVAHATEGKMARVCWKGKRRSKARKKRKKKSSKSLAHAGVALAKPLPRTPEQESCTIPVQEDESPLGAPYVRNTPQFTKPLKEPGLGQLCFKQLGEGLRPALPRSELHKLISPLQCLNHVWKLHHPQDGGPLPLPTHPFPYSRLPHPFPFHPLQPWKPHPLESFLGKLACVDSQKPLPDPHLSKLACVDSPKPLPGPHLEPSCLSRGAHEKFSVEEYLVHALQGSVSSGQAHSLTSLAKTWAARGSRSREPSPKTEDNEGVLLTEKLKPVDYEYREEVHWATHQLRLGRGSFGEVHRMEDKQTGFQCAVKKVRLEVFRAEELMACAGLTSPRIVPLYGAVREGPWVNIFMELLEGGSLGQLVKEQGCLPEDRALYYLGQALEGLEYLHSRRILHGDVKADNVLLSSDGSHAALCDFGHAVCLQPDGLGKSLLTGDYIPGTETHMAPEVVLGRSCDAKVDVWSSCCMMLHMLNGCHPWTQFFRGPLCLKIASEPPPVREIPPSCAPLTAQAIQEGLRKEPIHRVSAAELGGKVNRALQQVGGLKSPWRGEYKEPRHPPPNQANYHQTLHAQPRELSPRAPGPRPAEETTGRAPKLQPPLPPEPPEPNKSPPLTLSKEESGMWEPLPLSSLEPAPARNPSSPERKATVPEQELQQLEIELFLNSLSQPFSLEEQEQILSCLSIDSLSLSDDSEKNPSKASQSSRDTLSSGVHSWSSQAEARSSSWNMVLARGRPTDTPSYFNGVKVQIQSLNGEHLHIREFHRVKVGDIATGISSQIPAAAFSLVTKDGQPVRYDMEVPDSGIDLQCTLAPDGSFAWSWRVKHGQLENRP

Structure (SMILES) | IC50 [1] | IC50 ([2]; Homo sapiens, L-363, 6 h) | IC50 [2]
CN1CC[C@@](O)(C#Cc2cccc(-c3ccc4nccc(N5CCC5)c4c3)c2)C1=O [Example 235, (R)-3-((3-(4-(Azetidin-1-yl)quinolin-6-yl)phenyl)ethynyl)-3-hydroxy-1-methylpyrrolidin-2-one] | 2950 nM | > 5000 nM | 
Cc1ccc(C#C[C@]2(O)CCc3cccnc32)cc1-c1ccc2ccnc(N)c2c1 [Example 80, (R)-7-[2-[3-(1-Amino-7-isoquinolyl)-4-methyl-phenyl]ethynyl]-5,6-dihydrocyclopenta[b]pyridin-7-ol] | 28 nM | 4000 nM | 
Cc1cc([C@](C)(O)C#Cc2ccc(C)c(-c3nc4c(N)ncnc4s3)c2)no1 [Example 217, (R)-4-[3-(7-Aminothiazolo[5,4-d]pyrimidin-2-yl)-4-methyl-phenyl]-2-(5-methylisoxazol-3-yl)but-3-yn-2-ol] | 0.9 nM | 77 nM | 
CN1CC[C@@](O)(C#Cc2cccc(-c3ccc4ncnc(N5CCCCC5)c4n3)c2)C1=O [Example 225, (R)-3-Hydroxy-1-methyl-3-((3-(4-(piperidin-1-yl)pyrido[3,2-d]pyrimidin-6-yl)phenyl)ethynyl)pyrrolidin-2-one] | 6.1 nM | 600 nM | 
Cc1nc(-c2cccc(C#Cc3ccn[nH]3)c2)nc2c(N)nccc12 [Example 107, 2-(3-((1H-Pyrazol-5-yl)ethynyl)phenyl)-4-methylpyrido[3,4-d]pyrimidin-8-amine] | 52 nM | > 5000 nM | 
Cc1nc(N)c2nc(-c3cccc(C#C[C@]4(O)CCN(C)C4=O)c3)nc(C)c2n1 [Example 156, (R)-3-((3-(8-Amino-4,6-dimethylpyrimido[5,4-d]pyrimidin-2-yl)phenyl)ethynyl)-3-hydroxy-1-methylpyrrolidin-2-one] | 1.1 nM | 16 nM | 
Cc1nc(N)c2nc(-c3cccc(C#C[C@@]4(O)C(=O)N(C)[C@@H]5C[C@@H]54)c3)ccc2n1 [Example 273, (1R,4R,5S)-4-((3-(4-Amino-2-methylpyrido[3,2-d]pyrimidin-6-yl)phenyl)ethynyl)-4-hydroxy-2-methyl-2-azabicyclo[3.1.0]hexan-3-one] | 2.7 nM | 27 nM | 
CN1CC[C@@](O)(C#Cc2cccc(-c3ccc4ncnc(N5CCC5)c4c3)c2)C1=O [Example 243, (R)-3-((3-(4-(Azetidin-1-yl)quinazolin-6-yl)phenyl)ethynyl)-3-hydroxy-1-methylpyrrolidin-2-one] | 14 nM | 670 nM | 
C[C@@](O)(C#Cc1cccc(-c2nc(C(F)(F)F)c3ccnc(N)c3n2)c1)c1nccs1 [Example 49, (R)-4-(3-(8-Amino-4-(trifluoromethyl)pyrido[3,4-d]pyrimidin-2-yl)phenyl)-2-(thiazol-2-yl)but-3-yn-2-ol] | 2.5 nM | 130 nM | 
Cc1nc(N)c2nc(-c3cccc(C#CC4(O)CCCc5cccnc54)c3)ccc2n1 (racemic) [Example 165, racemic-8-((3-(4-Amino-2-methylpyrido[3,2-d]pyrimidin-6-yl)phenyl)ethynyl)-5,6,7,8-tetrahydroquinolin-8-ol] | 120 nM | > 5000 nM | 
CN1CC[C@@](O)(C#Cc2cccc(-c3ccc4c(CN5CCCC5)cnc(N)c4n3)c2)C1=O [Example 171, (R)-3-[2-[3-[8-Amino-5-(pyrrolidin-1-ylmethyl)-1,7-naphthyridin-2-yl]phenyl]ethynyl]-3-hydroxy-1-methyl-pyrrolidin-2-one] | 4 nM | 180 nM | 
CN1CC[C@@](O)(C#Cc2cccc(-c3cc(C4CCN4)c4ncnc(N)c4n3)c2)C1=O (stereo partly drawn) [Example 313, (3R)-3-((3-(4-Amino-8-(azetidin-2-yl)pyrido[3,2-d]pyrimidin-6-yl-2-d)phenyl)ethynyl)-3-hydroxy-1-methylpyrrolidin-2-one] | 3.1 nM |  | 231 nM
Cc1cc(C#C[C@]2(O)CCN(C)C2=O)cc(-c2ncc3ccnc(N)c3n2)c1 [Example 42, (R)-3-((3-(8-Aminopyrido[3,4-d]pyrimidin-2-yl)-5-methylphenyl)ethynyl)-3-hydroxy-1-methylpyrrolidin-2-one] | 1.3 nM | 29 nM | 

More lines, main results first:

IC50 [1] | IC50 ([2]; Homo sapiens, L-363, 6 h) | Structure (SMILES) | IC50 [2]
0.7 nM | 15 nM | CN1CC[C@@](O)(C#Cc2cccc(-c3nc(N(C)C)c4ccnc(N)c4n3)c2)C1=O [Example 58, (R)-3-((3-(8-Amino-4-(dimethylamino)pyrido[3,4-d]pyrimidin-2-yl)phenyl)ethynyl)-3-hydroxy-1-methylpyrrolidin-2-one] | 
2.4 nM | 19 nM | [2H]c1nc(N)c2nc(-c3cc(C#C[C@]4(O)CCN(C)C4=O)ccc3OC)ccc2n1 [Example 160, (R)-3-((3-(4-Aminopyrido[3,2-d]pyrimidin-6-yl-2-d)-4-methoxyphenyl)ethynyl)-3-hydroxy-1-methylpyrrolidin-2-one] | 
1.4 nM | 370 nM | Cc1nc(N)c2nc(-c3cccc(C#C[C@]4(O)CCN(C)C4=O)c3)cnc2n1 [Example 148, (R)-3-[2-[3-(4-Amino-2-methyl-pteridin-6-yl)phenyl]ethynyl]-3-hydroxy-1-methyl-pyrrolidin-2-one] | 
1.5 nM | 38 nM | CC(C)c1nc(-c2cccc(C#C[C@]3(O)CCN(C)C3=O)c2)nc2c(N)nccc12 [Example 98, (R)-3-((3-(8-Amino-4-isopropylpyrido[3,4-d]pyrimidin-2-yl)phenyl)ethynyl)-3-hydroxy-1-methylpyrrolidin-2-one] | 
2.2 nM | 4.2 nM | [2H]c1nc(N)c2nc(-c3cccc(C#C[C@]4(O)CCN(C)C4=O)c3)nc(C)c2n1 [Example 168, (R)-3-((3-(8-Amino-4-methylpyrimido[5,4-d]pyrimidin-2-yl-6-d)phenyl)ethynyl)-3-hydroxy-1-methylpyrrolidin-2-one] | 
0.9 nM | 16 nM | CN1CC[C@@](O)(C#Cc2cccc(-c3ccc4nc(F)nc(N)c4n3)c2)C1=O [Example 288, (R)-3-((3-(4-Amino-2-fluoropyrido[3,2-d]pyrimidin-6-yl)phenyl)ethynyl)-3-hydroxy-1-methylpyrrolidin-2-one] | 
7.3 nM | 470 nM | Cc1ncc(Br)c2ccc(-c3cccc(C#C[C@]4(O)CCN(C)C4=O)c3)nc12 [Example 249, (R)-3-((3-(5-Bromo-8-methyl-1,7-naphthyridin-2-yl)phenyl)ethynyl)-3-hydroxy-1-methylpyrrolidin-2-one] | 
0.7 nM | 13 nM | [2H]c1nc(N)c2nc(-c3cccc(C#C[C@]4(O)CCN(C)C4=O)c3)cc(C3CCCC3)c2n1 [Example 277, (R)-3-((3-(4-Amino-8-cyclopentylpyrido[3,2-d]pyrimidin-6-yl-2-d)phenyl)ethynyl)-3-hydroxy-1-methylpyrrolidin-2-one] | 
≤ 0.5 nM | 12 nM | CCc1cnc(N)c2nc(-c3cccc(C#C[C@]4(O)CCN(C)C4=O)c3)ncc12 [Example 129, (R)-3-((3-(8-Amino-5-ethylpyrido[3,4-d]pyrimidin-2-yl)phenyl)ethynyl)-3-hydroxy-1-methylpyrrolidin-2-one] | 
0.7 nM | 57 nM | CN1CC[C@@](O)(C#Cc2cccc(-c3ccc4ncnc(N)c4c3)c2)C1=O [Example 16, (R)-3-[2-[3-(4-Aminoquinazolin-6-yl)phenyl]ethynyl]-3-hydroxy-1-methyl-pyrrolidin-2-one] | 
